Counter-ions that a name gives are not always drawn.
biological target: T1, Full length Cereblon protein (6His tev Cereblon/6His tev DDB1ΔBPB) (Homo sapiens, UniProt Q96SW2); test: Cereblon Binding Assay (TR-FRET); conditions: 5 nM protein, 50 nM Alexa647-lenalidomide ligand, read-out: Mean pIC50 (converted)
T1 construct: Full length Cereblon protein (6His tev Cereblon/6His tev DDB1ΔBPB) was expressed and purified from E. coli; made in house; host or cells: E. coli
Experimental: Full length Cereblon protein (6His tev Cereblon/6His tev DDB1ΔBPB) was expressed and purified from E. coli to monitor compound binding. […] A Thermo Scientific Multidrop Combi was used to dispense 5 μL of 10 nM protein in assay buffer of 50 mM
HEPES, 150 mM NaCl, 5% glycerol, 1 mM DTT and 1 mM CHAPS, pH 7.4, in the presence of 100 nM fluorescent ligand (Final assay concentrations of 5 nM protein and 50 nM ligand). After equilibrating for 15 min in the dark at room temperature a 5 μL addition was made of 2 nM europium chelate labelled anti-6His antibody (Perkin Elmer, W1024, AD0111) in assay buffer (1 nM FAC). […] TR-FRET ratio data was normalised to high (DMSO) and low (reaction in the absence of protein) controls and pIC50 values determined for each of the compounds tested by fitting the fluorescence ratio data to a four parameter model:
[formula] • where ‘a’ is the minimum, ‘b’ is the maximum, ‘c’ is the pIC50 and ‘d’ is the Hill slope.

T1 sequence (Q96SW2 whole entry, stated change not applied): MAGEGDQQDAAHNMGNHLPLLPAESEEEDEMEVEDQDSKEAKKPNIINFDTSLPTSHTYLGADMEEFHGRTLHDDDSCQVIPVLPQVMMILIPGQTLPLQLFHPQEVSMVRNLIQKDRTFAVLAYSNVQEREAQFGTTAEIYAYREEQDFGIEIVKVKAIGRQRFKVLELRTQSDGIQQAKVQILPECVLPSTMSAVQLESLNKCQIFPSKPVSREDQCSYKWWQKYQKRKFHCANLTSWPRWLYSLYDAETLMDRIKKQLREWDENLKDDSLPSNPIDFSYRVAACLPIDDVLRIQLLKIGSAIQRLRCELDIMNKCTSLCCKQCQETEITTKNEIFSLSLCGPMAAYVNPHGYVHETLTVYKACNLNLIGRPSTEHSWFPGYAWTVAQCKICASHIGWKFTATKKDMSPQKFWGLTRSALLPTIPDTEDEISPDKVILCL

Row | Structure (SMILES) | IC50
1 | N#Cc1ccc(O[C@H]2CC[C@H](NC(=O)c3ccc(N4CCC(CN5CCC(n6ccc7c(N8CCC(=O)NC8=O)cccc76)C(F)(F)C5)CC4)nn3)CC2)cc1Cl (single isomer, unassigned) [EAR162, N-((1r,4r)-4-(3-Chloro-4-cyanophenoxy)cyclohexyl)-6-(4-((4-(4-(2,4-dioxotetrahydropyrimidin-1(2H)-yl)-1H-indol-1-yl)-3,3-difluoropiperidin-1-yl)methyl)piperidin-1-yl)pyridazine-3-carboxamide] | ≤ 1 µM
2 | O=C1CCN(c2cncc3c2cnn3C2CCNCC2)C(=O)N1 [ECB8, 1-(1-(Piperidin-4-yl)-1H-pyrazolo[3,4-c]pyridin-4-yl)dihydropyrimidine-2,4(1H,3H)-dione] | 0.251 µM
3 | O=C1CCN(c2cncc3c2ccn3C2CCNCC2)C(=O)N1 [ECB6, 1-(1-(piperidin-4-yl)-1H-pyrrolo[2,3-c]pyridin-4-yl)dihydropyrimidine-2,4(1H,3H)-dione] | 0.0251 µM
4 | CC1(C)[C@H](NC(=O)c2ccc(N3CCC(CN4CCC(n5ncc6c(N7CCC(=O)NC7=O)cccc65)CC4)CC3)nn2)C(C)(C)[C@H]1Oc1cnc(C#N)c(Cl)c1 [EAR249, N-((1r,3r)-3-((5-Chloro-6-cyanopyridin-3-yl)oxy)-2,2,4,4-tetramethylcyclobutyl)-6-(4-((4-(4-(2,4-dioxotetrahydropyrimidin-1(2H)-yl)-1H-indazol-1-yl)piperidin-1-yl)methyl)piperidin-1-yl)pyridazine-3-carboxamide hydrochloride] | ≤ 1 µM
5 | O=C1CCN(c2cc(C(F)(F)F)cc3c2cnn3C2CCNCC2)C(=O)N1 [ECB30, 1-(1-(piperidin-4-yl)-6-(trifluoromethyl)-1H-indazol-4-yl)dihydropyrimidine-2,4(1H,3H)-dione] | 0.245 µM
6 | O=C1CCN(c2cc(F)cc3c2cnn3C2CCNCC2)C(=O)N1 [ECB10, 1-(6-Fluoro-1-(piperidin-4-yl)-1H-indazol-4-yl)dihydropyrimidine-2,4(1H,3H)-dione] | 0.2 µM
7 | N#Cc1ccc(O[C@H]2CC[C@H](NC(=O)c3ccc(N4CCCC(CN5CCC(n6ccc7c(N8CCC(=O)NC8=O)cccc76)CC5)C4)nn3)CC2)cc1Cl (mixture of isomers) [EAR73, rac-N-((1r,4r)-4-(3-Chloro-4-cyanophenoxy)cyclohexyl)-6-(3-((4-(4-(2,4-dioxotetrahydropyrimidin-1(2H)-yl)-1H-indol-1-yl)piperidin-1-yl)methyl)piperidin-1-yl)pyridazine-3-carboxamide] | ≤ 1 µM
8 | O=C1CCN(c2ncnc3c2ccn3C2CCNCC2)C(=O)N1 [ECB17, 1-(7-(piperidin-4-yl)-7H-pyrrolo[2,3-d]pyrimidin-4-yl)dihydropyrimidine-2,4(1H,3H)-dione] | 0.316 µM
9 | O=C1CCN(c2cc(Cl)cc3c2ccn3C2CCNCC2)C(=O)N1 [ECB9, 1-(6-Chloro-1-(piperidin-4-yl)-1H-indol-4-yl)dihydropyrimidine-2,4(1H,3H)-dione] | 0.00794 µM
10 | O=C1CCN(c2nccc3c2ccn3C2CCNCC2)C(=O)N1 [ECB25, 1-(1-(piperidin-4-yl)-1H-pyrrolo[3,2-c]pyridin-4-yl)dihydropyrimidine-2,4(1H,3H)-dione] | 0.229 µM
11 | O=C1CCN(c2ccnc3c2cnn3C2CCNCC2)C(=O)N1 [ECB19, 1-(1-(piperidin-4-yl)-1H-pyrazolo[3,4-b]pyridin-4-yl)dihydropyrimidine-2,4(1H,3H)-dione] | 0.38 µM

Further lines, results first:

Row | IC50 | Structure (SMILES)
12 | 0.1 µM | Cn1ccc2c(N3CCC(=O)NC3=O)cccc21 [ECB45, 1-(1-Methyl-1H-indol-4-yl)dihydropyrimidine-2,4(1H,3H)-dione]
13 | 0.309 µM | Cn1ncc2c(N3CCC(=O)NC3=O)cccc21 [ECB46, 1-(1-Methyl-1H-indazol-4-yl)dihydropyrimidine-2,4(1H,3H)-dione]
14 | 0.02 µM | Cc1ccc(N2CCC(=O)NC2=O)c2ccn(C)c12 [ECB49, 1-(1,7-Dimethyl-1H-indol-4-yl)dihydropyrimidine-2,4(1H,3H)-dione]
15 | 0.575 µM | Cn1ccc2c(N3CCC(=O)NC3=O)nccc21 [ECB47, 1-(1-Methyl-1H-pyrrolo[3,2-c]pyridin-4-yl)dihydropyrimidine-2,4(1H,3H)-dione]
16 | 0.0355 µM | COCCn1ccc2c(N3CCC(=O)NC3=O)cccc21 [ECB48, 1-(1-(2-Methoxyethyl)-1H-indol-4-yl)dihydropyrimidine-2,4(1H,3H)-dione]
17 | 0.0331 µM | O=C1CCN(c2cc(F)cc3c2ccn3C2CCNCC2)C(=O)N1 [ECB44, 1-(6-Fluoro-1-(piperidin-4-yl)-1H-indol-4-yl)dihydropyrimidine-2,4(1H,3H)-dione]

biological target: T2, Androgen Receptor dual T878A/L702H mutant protein (Homo sapiens, UniProt P10275, L702H/T878A); test: Dual Mutant (T878A/L702H) Androgen Receptor Degradation Assay (HTRF); type: cell-based; conditions: MDA-PCa-2b, 18 h, human MDA PCa 2b cells, read-out: mean asymptote max
T2 construct: Androgen Receptor dual T878A/L702H mutant protein in human MDA PCa 2b (ATCC, #CRL-2422) cells; host or cells: MDA PCa 2b
T2 sequence (P10275 1-920 L702H/T878A): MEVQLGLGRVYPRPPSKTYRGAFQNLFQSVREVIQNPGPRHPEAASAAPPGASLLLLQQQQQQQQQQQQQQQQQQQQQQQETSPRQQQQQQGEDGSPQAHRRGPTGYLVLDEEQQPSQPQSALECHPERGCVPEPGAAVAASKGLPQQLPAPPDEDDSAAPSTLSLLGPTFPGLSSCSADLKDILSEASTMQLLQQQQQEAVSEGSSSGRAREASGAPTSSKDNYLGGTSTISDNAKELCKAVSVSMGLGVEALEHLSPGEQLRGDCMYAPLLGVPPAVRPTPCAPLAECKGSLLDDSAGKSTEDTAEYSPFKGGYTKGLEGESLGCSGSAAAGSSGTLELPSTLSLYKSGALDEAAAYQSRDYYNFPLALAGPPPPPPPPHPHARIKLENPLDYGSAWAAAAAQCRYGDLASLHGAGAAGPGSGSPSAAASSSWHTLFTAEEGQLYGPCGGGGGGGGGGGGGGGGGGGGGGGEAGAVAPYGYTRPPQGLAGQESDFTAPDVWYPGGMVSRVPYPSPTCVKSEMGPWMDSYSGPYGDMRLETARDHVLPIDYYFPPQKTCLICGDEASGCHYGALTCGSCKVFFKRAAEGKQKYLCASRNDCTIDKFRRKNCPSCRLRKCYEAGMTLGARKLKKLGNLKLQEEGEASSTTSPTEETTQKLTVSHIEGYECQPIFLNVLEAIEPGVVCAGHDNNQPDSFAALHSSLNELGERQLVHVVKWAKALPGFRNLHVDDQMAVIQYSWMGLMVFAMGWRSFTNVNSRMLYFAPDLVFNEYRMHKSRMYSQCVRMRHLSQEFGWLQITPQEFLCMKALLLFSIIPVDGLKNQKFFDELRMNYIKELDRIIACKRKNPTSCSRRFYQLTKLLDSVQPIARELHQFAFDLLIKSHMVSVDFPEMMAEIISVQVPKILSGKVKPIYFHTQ
Experimental: Degradation of Androgen Receptor dual T878A/L702H mutant protein in human MDA PCa 2b (ATCC, #CRL-2422) cells treated with PROTACs was quantified using the HTRF Human Androgen Receptor Detection Kit (PerkinElmer, #64ANDRPEH) in 384 well assay plate format. 10 mM DMSO(Sigma-Aldrich, #472301) stock solutions of PROTACs were prepared and diluted across an 11 concentration, 3-fold increment range, and 25 nL dispensed into a white opaque bottomed 384 well assay plate (Thermofisher, #164610) using an acoustic ECHO dispenser (Labcyte). Cells were cultured in growth medium (BRFF-HPC-1 (Athena ES, #0403) supplemented with 20% FBS (Gibco, #10099-141), penicillin 50 U/mL and streptomycin 50 ug/mL (Gibco, #15140-122)) in collagen I or poly-D-lysine coated T175 flasks (Corning, #356487 or #356539, respectively). For the assay, cells were harvested from the flask, centrifuged at 200 g for 5 min and then resuspended in the growth medium. 25 μl of cell suspension containing 10,000 cells was dispensed into each well of the assay plate containing the test compounds, which was then incubated for 18 h at 37° C./5% CO2. Control wells were included on each assay plate, with assay medium without cells being the no AR remaining 100% effect control, and cells treated with DMSO vehicle only, without PROTAC, the 0% effect control. After 18 h incubation 8 μl of supplemented lysis buffer from HTRF kit was added to each well and the plate shaken at 500 rpm for 1 h at room temperature. 8 μl of antibody mix in Detection buffer from HTRF kit was added to each well and the plate was incubated for 2 h in dark at room temperature. The fluorescence was measured at both 620 nm and 665 nm using an excitation wavelength of 337 nm with a PHERAstar microplate reader (BMG Labtech) and the % AR protein remaining in each well was calculated by normalising the HTRF ratio (665 nm signal/620 nm signal) value to the control wells mentioned above. Parameters corresponding to the potency and efficacy estimates of the PROTACs were obtained from these normalised values using curve fitting software (IDBS ActivityBase). These included the DC50 and the Dmax estimates. Two versions of the DC50, called relative DC50 and absolute DC50, were typically generated. These are the inflection point of a fitted 4 parameter sigmoidal response curve and the interpolated concentration of PROTAC corresponding to 50% of the protein being degraded, respectively. The Dmax parameter was the maximum experimentally observed degradation and the asymptote max parameter the fitted response curve asymptote maximum.

Row | Dmax | Structure (SMILES)
18 | ≥ 55% | CC1(C)[C@H](NC(=O)c2ccc(N3CCC(CN4CCC(n5ncc6c(N7CCC(=O)NC7=O)cccc65)CC4)CC3)nc2)C(C)(C)[C@H]1Oc1ccc(C#N)c2ncccc12 [AR261, N-((1r,3r)-3-((8-Cyanoquinolin-5-yl)oxy)-2,2,4,4-tetramethylcyclobutyl)-6-(4-((4-(4-(2,4-dioxotetrahydropyrimidin-1(2H)-yl)-1H-indazol-1-yl)piperidin-1-yl)methyl)piperidin-1-yl)nicotinamide hydrochloride]

biological target: T3, Androgen Receptor (Homo sapiens, UniProt P10275, T878A); test: Androgen Receptor Degradation Assay (Nano-Glo HiBiT); type: cell-based; conditions: LNCaP, 18 h, HiBiT-tagged AR in human LnCaP cells, read-out: mean asymptote max
T3 construct: the AR gene was modified, using CRISPR/Cas9 editing, so the expressed AR protein included an 11 amino acid HiBiT tag; endogenous in cells; host or cells: clonal LnCaP-derived line, AR gene edited by CRISPR/Cas9
Outline: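 LnCaP cells with CRISPR-knocked-in N-terminal HiBiT-tagged AR (10,000/well) treated 18 h at 37 °C with PROTACs over 11 threefold concentrations; lytic HiBiT luminescence normalised to DMSO (0%) and cell-free (100%) controls. Relative DC50 = 4-parameter fit inflection; absolute DC50 = 50% degradation interpolation; Dmax = maximum observed degradation.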

T3 sequence (P10275 whole entry T878A): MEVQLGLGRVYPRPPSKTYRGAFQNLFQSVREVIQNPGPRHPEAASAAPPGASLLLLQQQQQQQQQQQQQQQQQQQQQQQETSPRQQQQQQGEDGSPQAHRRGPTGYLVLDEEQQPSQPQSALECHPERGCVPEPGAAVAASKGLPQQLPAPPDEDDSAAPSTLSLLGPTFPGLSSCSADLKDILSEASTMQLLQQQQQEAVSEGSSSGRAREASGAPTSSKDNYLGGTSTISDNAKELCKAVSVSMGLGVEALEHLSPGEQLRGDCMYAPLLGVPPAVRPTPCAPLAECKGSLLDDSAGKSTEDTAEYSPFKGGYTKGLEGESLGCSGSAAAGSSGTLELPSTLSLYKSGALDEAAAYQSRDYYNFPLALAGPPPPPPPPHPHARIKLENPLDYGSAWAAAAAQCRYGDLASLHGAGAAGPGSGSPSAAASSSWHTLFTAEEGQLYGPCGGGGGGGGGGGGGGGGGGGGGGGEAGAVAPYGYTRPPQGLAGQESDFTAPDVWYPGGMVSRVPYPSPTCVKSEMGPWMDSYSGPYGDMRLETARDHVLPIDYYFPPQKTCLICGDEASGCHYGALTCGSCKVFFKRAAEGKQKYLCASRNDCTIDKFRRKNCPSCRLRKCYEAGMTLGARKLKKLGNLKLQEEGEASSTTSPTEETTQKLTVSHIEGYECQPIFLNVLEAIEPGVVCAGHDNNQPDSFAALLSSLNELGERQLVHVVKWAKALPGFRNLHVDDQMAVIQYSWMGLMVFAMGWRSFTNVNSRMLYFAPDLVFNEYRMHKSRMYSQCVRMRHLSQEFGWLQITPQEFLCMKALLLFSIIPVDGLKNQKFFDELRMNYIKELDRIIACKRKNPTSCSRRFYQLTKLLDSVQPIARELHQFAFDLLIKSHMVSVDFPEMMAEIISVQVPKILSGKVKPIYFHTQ
T3 sequence (Q96SW2 whole entry partner): as the sequence (Q96SW2 whole entry, stated change not applied) above
T3 sequence (Q16531 whole entry partner): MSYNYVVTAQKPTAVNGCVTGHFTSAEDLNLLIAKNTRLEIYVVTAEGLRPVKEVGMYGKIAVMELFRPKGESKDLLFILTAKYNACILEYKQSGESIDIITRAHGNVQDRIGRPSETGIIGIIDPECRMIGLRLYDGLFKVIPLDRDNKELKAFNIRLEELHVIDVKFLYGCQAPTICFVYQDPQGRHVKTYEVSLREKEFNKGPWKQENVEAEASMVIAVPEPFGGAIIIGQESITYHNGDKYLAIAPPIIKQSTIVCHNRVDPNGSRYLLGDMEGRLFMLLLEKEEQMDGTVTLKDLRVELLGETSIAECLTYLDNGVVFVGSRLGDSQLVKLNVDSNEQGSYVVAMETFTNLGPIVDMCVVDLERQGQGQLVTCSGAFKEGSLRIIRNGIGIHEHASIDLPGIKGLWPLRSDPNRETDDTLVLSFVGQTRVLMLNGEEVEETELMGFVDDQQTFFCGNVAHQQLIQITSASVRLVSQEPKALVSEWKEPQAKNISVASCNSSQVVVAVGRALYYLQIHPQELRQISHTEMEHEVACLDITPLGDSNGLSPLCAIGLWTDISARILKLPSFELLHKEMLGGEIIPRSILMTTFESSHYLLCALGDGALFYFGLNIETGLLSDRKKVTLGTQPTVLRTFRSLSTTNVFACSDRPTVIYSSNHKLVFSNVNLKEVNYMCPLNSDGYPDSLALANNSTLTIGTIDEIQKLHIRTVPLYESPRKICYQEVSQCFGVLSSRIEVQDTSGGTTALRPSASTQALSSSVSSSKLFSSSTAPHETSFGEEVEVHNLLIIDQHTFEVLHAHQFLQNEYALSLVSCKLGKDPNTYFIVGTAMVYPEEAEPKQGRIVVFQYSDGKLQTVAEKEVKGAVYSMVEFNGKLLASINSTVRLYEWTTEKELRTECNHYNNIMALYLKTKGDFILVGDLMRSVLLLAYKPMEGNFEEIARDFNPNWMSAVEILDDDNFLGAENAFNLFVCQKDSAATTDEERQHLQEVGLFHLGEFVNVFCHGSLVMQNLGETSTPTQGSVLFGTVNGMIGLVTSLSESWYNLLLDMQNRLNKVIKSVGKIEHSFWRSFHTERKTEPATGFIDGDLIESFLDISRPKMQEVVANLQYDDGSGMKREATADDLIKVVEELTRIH

Row | Dmax | Structure (SMILES)
19 | ≥ 50% | N#Cc1ccc(O[C@H]2CC[C@H](NC(=O)c3ccc(N4CCC(CN5CCC(n6ccc7c(N8CCC(=O)NC8=O)cccc76)C(F)(F)C5)CC4)nn3)CC2)cc1Cl (single isomer, unassigned) [EAR162, N-((1r,4r)-4-(3-Chloro-4-cyanophenoxy)cyclohexyl)-6-(4-((4-(4-(2,4-dioxotetrahydropyrimidin-1(2H)-yl)-1H-indol-1-yl)-3,3-difluoropiperidin-1-yl)methyl)piperidin-1-yl)pyridazine-3-carboxamide]
20 | ≥ 50% | CC1(C)[C@H](NC(=O)c2ccc(N3CCC(CN4CCC(n5ncc6c(N7CCC(=O)NC7=O)cccc65)CC4)CC3)nn2)C(C)(C)[C@H]1Oc1cnc(C#N)c(Cl)c1 [EAR249, N-((1r,3r)-3-((5-Chloro-6-cyanopyridin-3-yl)oxy)-2,2,4,4-tetramethylcyclobutyl)-6-(4-((4-(4-(2,4-dioxotetrahydropyrimidin-1(2H)-yl)-1H-indazol-1-yl)piperidin-1-yl)methyl)piperidin-1-yl)pyridazine-3-carboxamide hydrochloride]
21 | ≥ 50% | N#Cc1ccc(O[C@H]2CC[C@H](NC(=O)c3ccc(N4CCCC(CN5CCC(n6ccc7c(N8CCC(=O)NC8=O)cccc76)CC5)C4)nn3)CC2)cc1Cl (mixture of isomers) [EAR73, rac-N-((1r,4r)-4-(3-Chloro-4-cyanophenoxy)cyclohexyl)-6-(3-((4-(4-(2,4-dioxotetrahydropyrimidin-1(2H)-yl)-1H-indol-1-yl)piperidin-1-yl)methyl)piperidin-1-yl)pyridazine-3-carboxamide]
